One experiment addresses hFAP (M39-A757) (Homo sapiens (Human), UniProt Q12884). In words: hFAP binding assay (surface plasmon resonance). Conditions: SPR, 20° C., single cycle kinetics. (In SPR one partner is held on a chip, and binding of the other changes the refractive index at the surface.)
Experiment [1] concerns the target Prolyl endopeptidase, Prolyl Oligopeptidase (hPREP) (Homo sapiens (Human), UniProt P48147). Description: hPrep inhibition assay. The format is biochemical. Conditions: hPREP 0.6 nM, Z-Gly-Pro-amino-methylcoumarin 50 μM; read-out: PREP IC50. The method, then: Compounds were tested in a biochemical inhibition assay using Prolyl endopeptidase, Prolyl Oligopeptidase (hPREP) enzyme at 0.6 nM FAC (R&D Systems, 4308-SE) and the substrate Z-Gly-Pro-amino-methylcoumarin (Bachem, I-1145) at 50 μM FAC. 384 Low volume black plates (Greiner #784076) were used. […] Plates were incubated for 15 min at rt in dark. 4 μL, 100 μM substrate solution (25 mM Tris HCl, 250 mM NaCl, 0.01% Triton X-100, 5 mM Glutathione, pH 7.5) was added to each well. Plates were centrifuged at 1000 rpm and incubated for 20 min at rt in dark. The plates were read on a PHERAstar® reader with excitation 340 nm and emission 460 nm. Data were analyzed in Genedata Screener®. IC50 values were determined by plotting % inhibition versus log compound concentration and using a one site dose response model.

Data on 18 compounds can be found in patent US20230312550A1, “N-(2-(4-CYANOTHIAZOLIDIN-3-YL)-2-OXOETHYL)-QUINOLINE-4-CARBOXAMIDES” (AstraZeneca AB, priority 2020, published 2023).

By IC50 is commonly meant the concentration that gives 50% inhibition.

Chain of hFAP (M39-A757) (Q12884 39-757): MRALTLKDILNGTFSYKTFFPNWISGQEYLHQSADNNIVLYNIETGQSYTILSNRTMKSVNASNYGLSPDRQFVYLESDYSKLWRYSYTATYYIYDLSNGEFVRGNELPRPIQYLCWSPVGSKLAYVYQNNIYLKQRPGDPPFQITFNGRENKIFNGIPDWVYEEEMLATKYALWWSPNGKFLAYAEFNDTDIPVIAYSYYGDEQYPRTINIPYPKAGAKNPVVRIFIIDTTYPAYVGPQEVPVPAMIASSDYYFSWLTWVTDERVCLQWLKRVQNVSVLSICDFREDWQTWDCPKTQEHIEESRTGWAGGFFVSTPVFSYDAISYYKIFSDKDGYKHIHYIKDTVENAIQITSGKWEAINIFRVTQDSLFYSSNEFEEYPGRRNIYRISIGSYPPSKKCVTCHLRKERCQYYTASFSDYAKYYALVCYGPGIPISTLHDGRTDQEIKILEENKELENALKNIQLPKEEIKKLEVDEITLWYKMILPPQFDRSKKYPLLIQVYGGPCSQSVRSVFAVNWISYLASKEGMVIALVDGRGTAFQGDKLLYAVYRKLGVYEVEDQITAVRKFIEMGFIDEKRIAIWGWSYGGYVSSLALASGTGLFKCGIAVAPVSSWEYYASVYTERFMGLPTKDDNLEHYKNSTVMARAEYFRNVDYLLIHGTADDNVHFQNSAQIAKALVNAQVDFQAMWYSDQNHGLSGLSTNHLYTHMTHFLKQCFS
Chain of Prolyl endopeptidase, Prolyl Oligopeptidase (hPREP) (P48147 whole entry): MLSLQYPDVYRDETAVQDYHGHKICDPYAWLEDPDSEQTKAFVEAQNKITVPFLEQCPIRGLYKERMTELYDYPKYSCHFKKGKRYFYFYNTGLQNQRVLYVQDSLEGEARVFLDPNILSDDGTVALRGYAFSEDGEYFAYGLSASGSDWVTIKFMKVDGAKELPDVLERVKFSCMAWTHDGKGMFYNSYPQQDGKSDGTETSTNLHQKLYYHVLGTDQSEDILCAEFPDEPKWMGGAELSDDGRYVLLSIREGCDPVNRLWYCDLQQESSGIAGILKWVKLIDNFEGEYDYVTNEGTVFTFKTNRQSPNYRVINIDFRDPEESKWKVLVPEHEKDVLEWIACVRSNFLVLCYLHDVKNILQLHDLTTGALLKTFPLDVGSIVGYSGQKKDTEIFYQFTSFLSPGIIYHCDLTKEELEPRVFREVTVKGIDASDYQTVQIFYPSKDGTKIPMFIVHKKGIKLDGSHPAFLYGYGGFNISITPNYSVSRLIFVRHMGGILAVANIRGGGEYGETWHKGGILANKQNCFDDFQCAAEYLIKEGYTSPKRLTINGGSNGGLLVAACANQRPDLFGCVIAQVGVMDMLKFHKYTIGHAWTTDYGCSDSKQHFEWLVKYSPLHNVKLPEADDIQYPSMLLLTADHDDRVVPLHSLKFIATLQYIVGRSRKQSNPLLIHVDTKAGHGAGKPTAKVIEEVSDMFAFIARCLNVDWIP

Regarding `CCC1(F)CN(c2ccc3nccc(C(=O)NCC(=O)N4CSC[C@H]4C#N)c3c2)C1` [Example 138, (R)—N-(2-(4-Cyanothiazolidin-3-yl)-2-oxoethyl)-6-(3-ethyl-3-fluoro-azetidin-1-yl)quinoline-4-carboxamide], at hFAP (M39-A757), the “hFAP Binding assay k(off)” value came to 0.000075 s⁻¹ and the “hFAP Binding assay k(on)” value turned out to be 2500000 M⁻¹ s⁻¹. Besides, in experiment [1], the IC50 amounted to 470 nM.

`N#C[C@@H]1CSCN1C(=O)CNC(=O)c1ccnc2ccc(N3CCC(F)(F)C3)cc12` [Example 47, (R)—N-(2-(4-Cyanothiazolidin-3-yl)-2-oxoethyl)-6-(3,3-difluoropyrrolidin-1-yl)quinoline-4-carboxamide]: at hFAP (M39-A757), the “hFAP Binding assay k(off)” value turned out to be 0.00016 s⁻¹ and the “hFAP Binding assay k(on)” value came out at 5600000 M⁻¹ s⁻¹. In addition, the IC50 in experiment [1] worked out at 270 nM.

For `CC(=O)NCC1(C)CN(c2ccc3nccc(C(=O)NCC(=O)N4CSC[C@H]4C#N)c3c2)C1` [Example 181, (R)-6-(3-(Acetamidomethyl)-3-methylazetidin-1-yl)-N-(2-(4-cyano-thiazolidin-3-yl)-2-oxoethyl)quinoline-4-carboxamide], on hFAP (M39-A757), the “hFAP Binding assay k(off)” value was 0.000027 s⁻¹ and the “hFAP Binding assay k(on)” value was 180000 M⁻¹ s⁻¹. Further, the IC50 in experiment [1] was found to be 1600 nM.

With `N#C[C@@H]1CSCN1C(=O)CNC(=O)c1ccnc2ccc(N3CC4(CCO4)C3)cc12` [Example 153, (R)—N-(2-(4-Cyanothiazolidin-3-yl)-2-oxoethyl)-6-(1-oxa-6-azaspiro[3.3]heptan-6-yl)quinoline-4-carboxamide], on hFAP (M39-A757), the “hFAP Binding assay k(off)” value is 0.000085 s⁻¹ and the “hFAP Binding assay k(on)” value was found to be 5300000 M⁻¹ s⁻¹. In experiment [1], the IC50 was 540 nM.

As to `CC1(C)CN(c2ccc3nccc(C(=O)NCC(=O)N4CSC[C@H]4C#N)c3c2)C1` [Example 22, (R)—N-(2-(4-Cyanothiazolidin-3-yl)-2-oxoethyl)-6-(3,3-dimethylazetidin-1-yl)quinoline-4-carboxamide], on hFAP (M39-A757), the “hFAP Binding assay k(off)” value turned out to be 0.000047 s⁻¹ and the “hFAP Binding assay k(on)” value came out at 940000 M⁻¹ s⁻¹. Also, the IC50 in experiment [1] came to 470 nM.

Consider `C[C@H]1CN(c2ccc3nccc(C(=O)NCC(=O)N4CSC[C@H]4C#N)c3c2)C[C@H](C)O1` [Example 78, N-(2-((R)-4-Cyanothiazolidin-3-yl)-2-oxoethyl)-6-((2S,6S)-2,6-dimethyl-morpholino)quinoline-4-carboxamide], for which, on hFAP (M39-A757), the “hFAP Binding assay k(off)” value was 0.00010 s⁻¹ and the “hFAP Binding assay k(on)” value was determined as 880000 M⁻¹ s⁻¹. Also, the IC50 in experiment [1] came out at 890 nM.

For `C[C@@H]1COCCN1c1ccc2nccc(C(=O)NCC(=O)N3CSC[C@H]3C#N)c2c1` [Example 108, N-(2-((R)-4-Cyanothiazolidin-3-yl)-2-oxoethyl)-6-((R)-3-methyl-morpholino)quinoline-4-carboxamide], on hFAP (M39-A757), the “hFAP Binding assay k(off)” value is 0.000050 s⁻¹ and the “hFAP Binding assay k(on)” value was 1400000 M⁻¹ s⁻¹. Moreover, the IC50 in experiment [1] turned out to be 1000 nM.

In the case of `CCOC1(C)CN(c2ccc3nccc(C(=O)NCC(=O)N4CSC[C@H]4C#N)c3c2)C1` [Example 152, (R)—N-(2-(4-Cyanothiazolidin-3-yl)-2-oxoethyl)-6-(3-ethoxy-3-methyl-azetidin-1-yl)quinoline-4-carboxamide], on hFAP (M39-A757), the “hFAP Binding assay k(off)” value amounted to 0.000014 s⁻¹ and the “hFAP Binding assay k(on)” value amounted to 1000000 M⁻¹ s⁻¹. The IC50 in experiment [1] turned out to be 690 nM.

With `C[C@@H]1[C@@H](C)OCCN1c1ccc2nccc(C(=O)NCC(=O)N3CSC[C@H]3C#N)c2c1` [Example 83, N-(2-((R)-4-Cyanothiazolidin-3-yl)-2-oxoethyl)-6-((2R,3R)-2,3-dimethyl-morpholino)quinoline-4-carboxamide], on hFAP (M39-A757), the “hFAP Binding assay k(off)” value amounted to 0.000064 s⁻¹ and the “hFAP Binding assay k(on)” value was found to be 1700000 M⁻¹ s⁻¹. Further, in experiment [1], the IC50 worked out at 640 nM.

On to `N#C[C@@H]1CSCN1C(=O)CNC(=O)c1ccnc2ccc(N3CCCOCC3)cc12` [Example 91, (R)—N-(2-(4-Cyanothiazolidin-3-yl)-2-oxoethyl)-6-(1,4-oxazepan-4-yl)-quinoline-4-carboxamide], for which, on hFAP (M39-A757), the “hFAP Binding assay k(off)” value turned out to be 0.00021 s⁻¹ and the “hFAP Binding assay k(on)” value worked out at 3200000 M⁻¹ s⁻¹. In addition, in experiment [1], the IC50 came out at 260 nM.

On to `N#C[C@@H]1CSCN1C(=O)CNC(=O)c1ccnc2ccc(N3CC[C@@H](CO)C3)cc12` [Example 220, N-(2-((R)-4-Cyanothiazolidin-3-yl)-2-oxoethyl)-6-((R)-3-(hydroxymethyl)-pyrrolidin-1-yl)quinoline-4-carboxamide], for which, at hFAP (M39-A757), the “hFAP Binding assay k(off)” value was 0.000050 s⁻¹ and the “hFAP Binding assay k(on)” value turned out to be 1600000 M⁻¹ s⁻¹. In addition, the IC50 in experiment [1] turned out to be 390 nM.

With `COC[C@H]1COCCN1c1ccc2nccc(C(=O)NCC(=O)N3CSC[C@H]3C#N)c2c1` [Example 89, N-(2-((R)-4-Cyanothiazolidin-3-yl)-2-oxoethyl)-6-((S)-3-(methoxymethyl)-morpholino)quinoline-4-carboxamide], on hFAP (M39-A757), the “hFAP Binding assay k(off)” value came out at 0.00015 s⁻¹ and the “hFAP Binding assay k(on)” value stood at 3600000 M⁻¹ s⁻¹. Moreover, the IC50 in experiment [1] turned out to be 1300 nM.

With `N#C[C@@H]1CSCN1C(=O)CNC(=O)c1ccnc2ccc(N3CCCC3=O)cc12` [Example 11, (R)—N-(2-(4-Cyanothiazolidin-3-yl)-2-oxoethyl)-6-(2-oxopyrrolidin-1-yl)-quinoline-4-carboxamide], in experiment [1], the IC50 worked out at 140 nM.

Regarding `CC1(C)COCCN1c1ccc2nccc(C(=O)NCC(=O)N3CSC[C@H]3C#N)c2c1` [Example 107, (R)—N-(2-(4-Cyanothiazolidin-3-yl)-2-oxoethyl)-6-(3,3-dimethyl-morpholino)quinoline-4-carboxamide], at hFAP (M39-A757), the “hFAP Binding assay k(off)” value was 0.00016 s⁻¹ and the “hFAP Binding assay k(on)” value was 1900000 M⁻¹ s⁻¹. Further, the IC50 in experiment [1] came out at 1100 nM.

With `N#C[C@@H]1CSCN1C(=O)CNC(=O)c1ccnc2ccc(N3CC[C@H](CO)C3)cc12` [Example 221, N-(2-((R)-4-Cyanothiazolidin-3-yl)-2-oxoethyl)-6-((S)-3-(hydroxymethyl)-pyrrolidin-1-yl)quinoline-4-carboxamide], at hFAP (M39-A757), the “hFAP Binding assay k(off)” value was 0.000046 s⁻¹ and the “hFAP Binding assay k(on)” value was 8500000 M⁻¹ s⁻¹. In addition, the IC50 in experiment [1] was 410 nM.

Take `Cc1ccc2c(C(=O)NCC(=O)N3CSC[C@H]3C#N)ccnc2c1` [B, (R)—N-(2-(4-cyanothiazolidin-3-yl)-2-oxoethyl)-7-methylquinoline-4-carboxamide, reference compound]: the IC50 in experiment [1] was determined as 5.2 nM.

In the case of `C[C@H]1COCCN1c1ccc2nccc(C(=O)NCC(=O)N3CSC[C@H]3C#N)c2c1` [Example 102, N-(2-((R)-4-Cyanothiazolidin-3-yl)-2-oxoethyl)-6-((S)-3-methyl-morpholino)quinoline-4-carboxamide], on hFAP (M39-A757), the “hFAP Binding assay k(off)” value worked out at 0.000080 s⁻¹ and the “hFAP Binding assay k(on)” value came out at 2000000 M⁻¹ s⁻¹. Further, the IC50 in experiment [1] was found to be 680 nM.

Turning to `Cc1cc(C(=O)NCC(=O)N2CSC[C@H]2C#N)c2cc(N3CCOCC3)ccc2n1` [Example 109, (R)—N-(2-(4-Cyanothiazolidin-3-yl)-2-oxoethyl)-2-methyl-6-morpholino-quinoline-4-carboxamide], at hFAP (M39-A757), the “hFAP Binding assay k(off)” value was found to be 0.0099 s⁻¹ and the “hFAP Binding assay k(on)” value was determined as 1200000 M⁻¹ s⁻¹.
